Source: paper PMC10372819 (Acta Pharmaceutica Sinica. B, 2023)

How the values were obtained:
WT HIV-1 [1] = conditions: Selectivity index CC50/EC50 (WT)
WT HIV-1 RT = WT HIV-1 RT (Human immunodeficiency virus type 1 group M subtype B, UniProt P03366); assay: biochemical
WT HIV-1 [2] = assay: microbe, parasite or virus in culture; conditions: Human immunodeficiency virus 1, MT4, read-out: WT EC50
HIV-1 mutant L100I = assay: microbe, parasite or virus in culture; conditions: Human immunodeficiency virus 1, MT4, read-out: EC50 L100I
HIV-1 mutant K103N = assay: microbe, parasite or virus in culture; conditions: Human immunodeficiency virus 1, MT4, read-out: EC50 K103N
HIV-1 mutant Y188L = assay: microbe, parasite or virus in culture; conditions: Human immunodeficiency virus 1, MT4, read-out: EC50 Y188L
HIV-1 mutant E138K = assay: microbe, parasite or virus in culture; conditions: Human immunodeficiency virus 1, MT4, read-out: EC50 E138K
[3] = Cytotoxicity in uninfected; conditions: human, mock-infected (uninfected) MT-4 cells, CC50, uninfected MT-4 cells, MTT
hERG = hERG (Homo sapiens, UniProt Q12809); assay: hERG channel Qpatch assay in CHO-hERG cells; type: cell-based; conditions: at 40 μmol/L
Chain of hERG (Q12809 whole entry): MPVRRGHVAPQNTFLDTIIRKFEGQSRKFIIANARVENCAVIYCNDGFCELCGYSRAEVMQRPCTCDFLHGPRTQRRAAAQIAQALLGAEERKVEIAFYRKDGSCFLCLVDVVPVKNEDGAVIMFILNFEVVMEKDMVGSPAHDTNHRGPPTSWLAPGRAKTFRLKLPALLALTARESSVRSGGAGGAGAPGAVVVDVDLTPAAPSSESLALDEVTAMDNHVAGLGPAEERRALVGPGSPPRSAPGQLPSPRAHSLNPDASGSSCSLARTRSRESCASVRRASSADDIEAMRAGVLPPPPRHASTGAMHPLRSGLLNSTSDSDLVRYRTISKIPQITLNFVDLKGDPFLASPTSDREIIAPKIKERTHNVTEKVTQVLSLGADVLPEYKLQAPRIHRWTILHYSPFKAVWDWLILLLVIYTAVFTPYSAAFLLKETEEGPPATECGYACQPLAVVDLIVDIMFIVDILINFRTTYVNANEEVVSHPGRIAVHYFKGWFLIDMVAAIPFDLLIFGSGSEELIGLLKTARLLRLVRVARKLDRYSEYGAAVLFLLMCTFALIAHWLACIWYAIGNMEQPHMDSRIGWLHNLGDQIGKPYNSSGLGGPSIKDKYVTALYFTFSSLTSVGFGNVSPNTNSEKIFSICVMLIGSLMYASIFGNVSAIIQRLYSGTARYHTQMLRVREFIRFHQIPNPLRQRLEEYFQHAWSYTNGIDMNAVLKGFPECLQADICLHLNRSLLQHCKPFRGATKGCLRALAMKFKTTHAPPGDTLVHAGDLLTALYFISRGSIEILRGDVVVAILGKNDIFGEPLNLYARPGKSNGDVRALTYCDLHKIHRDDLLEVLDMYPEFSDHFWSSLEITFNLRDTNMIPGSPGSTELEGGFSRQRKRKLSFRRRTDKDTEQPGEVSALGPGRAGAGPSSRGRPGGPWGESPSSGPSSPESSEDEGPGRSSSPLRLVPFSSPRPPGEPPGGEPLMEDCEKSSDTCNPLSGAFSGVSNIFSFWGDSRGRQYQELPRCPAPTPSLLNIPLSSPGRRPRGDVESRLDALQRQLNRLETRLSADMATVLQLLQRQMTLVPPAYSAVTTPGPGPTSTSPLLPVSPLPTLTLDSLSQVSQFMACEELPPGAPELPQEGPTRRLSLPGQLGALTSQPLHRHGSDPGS

[4] = Liver microsomal stability, monkey; type: in vitro ADME
[5] = Liver microsomal stability, dog; type: in vitro ADME
[6] = Liver microsomal stability, human; type: in vitro ADME
[7] = In vivo pharmacokinetics in Sprague-Dawley rats; conditions: male, rat, plasma
mice = assay: Acute toxicity assay and HE staining in healthy mice; type: in vivo
MT-4 cells = assay: Cytotoxicity in uninfected; conditions: uninfected MT-4 cells, MTT
[8] = MF%>70% excellent, 30-70% good, <30% poor

Cc1cc(-c2ccc(C#N)cc2)cc(C)c1Oc1nc(Nc2ccc(C#N)cc2)ncc1CO [9a, 4′-((2-((4-Cyanophenyl)amino)-5-(hydroxymethyl)pyrimidin-4-yl)oxy)-3′,5′-dimethyl-[1,1′-biphenyl]-4-carbonitrile]
SI (WT HIV-1 [1]): 6343 | IC50 (WT HIV-1 RT): 35 ± 8 nM | EC50 (WT HIV-1 [2]): 2.5 ± 0.6 nM | EC50 (HIV-1 mutant L100I): 6.3 ± 0.3 nM | EC50 (HIV-1 mutant K103N): 3.2 ± 0.7 nM | EC50 (HIV-1 mutant Y188L): 33 ± 4 nM | EC50 (HIV-1 mutant E138K): 6.5 ± 0.5 nM | CC50 at 5 days [3]: 15600 ± 4600 nM

Cc1cc(-c2ccc(C#N)cc2)ccc1Oc1nc(Nc2ccc(C#N)cc2)ncc1CO [9b, 4′-((2-((4-Cyanophenyl)amino)-5-(hydroxymethyl)pyrimidin-4-yl)oxy)-3′-methyl-[1,1′-biphenyl]-4-carbonitrile]
SI (WT HIV-1 [1]): >38,095 | IC50 (WT HIV-1 RT): 27 ± 2 nM | EC50 (WT HIV-1 [2]): 1.2 ± 0.1 nM | EC50 (HIV-1 mutant L100I): 18.1 ± 3.4 nM | EC50 (HIV-1 mutant K103N): 2.9 ± 0.1 nM | EC50 (HIV-1 mutant Y188L): 144 ± 25.9 nM | EC50 (HIV-1 mutant E138K): 3.6 ± 0.7 nM | CC50 at 5 days [3]: > 46200 nM

COc1cc(-c2ccc(C#N)cc2)ccc1Oc1nc(Nc2ccc(C#N)cc2)ncc1CO [9c, 4′-((2-((4-Cyanophenyl)amino)-5-(hydroxymethyl)pyrimidin-4-yl)oxy)-3′-methoxy-[1,1′-biphenyl]-4-carbonitrile]
SI (WT HIV-1 [1]): 149,540 | IC50 (WT HIV-1 RT): 21 ± 8 nM | EC50 (WT HIV-1 [2]): 1.7 ± 0.1 nM | EC50 (HIV-1 mutant L100I): 20.5 ± 1.3 nM | EC50 (HIV-1 mutant K103N): 6.5 ± 0.2 nM | EC50 (HIV-1 mutant Y188L): 137 ± 8.1 nM | EC50 (HIV-1 mutant E138K): 19.4 ± 4.8 nM | CC50 at 5 days [3]: 258000 ± 1200 nM

N#Cc1ccc(Nc2ncc(CO)c(Oc3ccc(-c4ccc(C#N)cc4)cc3F)n2)cc1 [9d, 4′-((2-((4-Cyanophenyl)amino)-5-(hydroxymethyl)pyrimidin-4-yl)oxy)-3′-fluoro-[1,1′-biphenyl]-4-carbonitrile]
SI (WT HIV-1 [1]): >11,594 | IC50 (WT HIV-1 RT): 33 ± 2 nM | EC50 (WT HIV-1 [2]): 3.9 ± 0.4 nM | EC50 (HIV-1 mutant L100I): 117 ± 17.7 nM | EC50 (HIV-1 mutant K103N): 14.4 ± 1.5 nM | EC50 (HIV-1 mutant Y188L): 41800 nM | EC50 (HIV-1 mutant E138K): 34.9 ± 3.2 nM | CC50 at 5 days [3]: > 45800 nM

N#Cc1ccc(Nc2ncc(CO)c(Oc3ccc(-c4ccc(C#N)cc4)cc3Cl)n2)cc1 [9e, 3′-Chloro-4′-((2-((4-cyanophenyl)amino)-5-(hydroxymethyl)pyrimidin-4-yl)oxy)-[1,1′-biphenyl]-4-carbonitrile]
SI (WT HIV-1 [1]): >17,021 | IC50 (WT HIV-1 RT): 29 ± 3 nM | EC50 (WT HIV-1 [2]): 2.6 ± 0.5 nM | EC50 (HIV-1 mutant L100I): 18.5 ± 3.6 nM | EC50 (HIV-1 mutant K103N): 3.8 ± 0.2 nM | EC50 (HIV-1 mutant Y188L): 564 ± 97 nM | EC50 (HIV-1 mutant E138K): 11 ± 2.1 nM | CC50 at 5 days [3]: > 44100 nM

N#Cc1ccc(Nc2ncc(CO)c(Oc3ccc(-c4ccc(C#N)cc4)cc3C(F)(F)F)n2)cc1 [9f, 4′-((2-((4-Cyanophenyl)amino)-5-(hydroxymethyl)pyrimidin-4-yl)oxy)-3′-(trifluoromethyl)-[1,1′-biphenyl]-4-carbonitrile]
SI (WT HIV-1 [1]): 7891 | IC50 (WT HIV-1 RT): 21 ± 6 nM | EC50 (WT HIV-1 [2]): 1.8 ± 0.1 nM | EC50 (HIV-1 mutant L100I): 11.1 ± 0.5 nM | EC50 (HIV-1 mutant K103N): 3.2 ± 0.6 nM | EC50 (HIV-1 mutant Y188L): 85.3 ± 8.4 nM | EC50 (HIV-1 mutant E138K): 7.9 ± 0.2 nM | CC50 at 5 days [3]: 14600 ± 3100 nM

N#Cc1ccc(Nc2ncc(CO)c(Oc3c(F)cc(-c4ccc(C#N)cc4)cc3F)n2)cc1 [9g, 4′-((2-((4-Cyanophenyl)amino)-5-(hydroxymethyl)pyrimidin-4-yl)oxy)-3′,5′-difluoro-[1,1′-biphenyl]-4-carbonitrile]
inhibition of hERG (hERG): no significant inhibition | MF [4, 8]: 28.1% | half-life ([4]; monkey liver microsomes): 0.435 h | CLint scaled ([4]; monkey liver microsomes, Clint(hep)): 122 mL/min/kg | CLint scaled ([4]; monkey liver microsomes, Clint(mic), monkey liver microsome): 80.5 mL/min/kg | MF [5, 8]: 42.2% | half-life ([5]; dog liver microsomes): 1.19 h | CLint scaled ([5]; dog liver microsomes, Clint(hep)): 179 mL/min/kg | CLint scaled ([5]; dog liver microsomes, Clint(mic), dog liver microsome): 29.5 mL/min/kg | half-life ([6]; human, human liver microsomes): 45.9 h | CLint scaled ([6]; human, human liver microsomes, Clint(hep)): 56.2 mL/min/kg | CLint scaled ([6]; human, human liver microsomes, Clint(mic), human liver microsome): 0.763 mL/min/kg | MF ([6]; human, MF%>70% excellent, 30-70% good, <30% poor): 96.3% | t1/2 in human liver microsomes, fold longer than that of 5 ([6]; relative to 5 (t1/2 = 96 min)): about 29 fold | Cmax ([7]; iv, 1 mg/kg): 296 ± 79.4 ng/mL | Tmax ([7]; iv, 1 mg/kg): 0.08 h | half-life ([7]; iv, 1 mg/kg): 1.5 ± 0.14 h | AUC ([7]; iv, 1 mg/kg, AUC0‒t, 1.0 mg/kg i.v.): 244 ± 24.5 ng·h/mL | AUC ([7]; iv, 1 mg/kg, AUC0‒∞, 1.0 mg/kg i.v.): 247 ± 25.8 ng·h/mL | MRT ([7]; iv, 1 mg/kg, MRT0‒t, 1.0 mg/kg i.v.): 1.19 ± 0.16 h | MRT ([7]; iv, 1 mg/kg, MRT0‒∞, 1.0 mg/kg i.v.): 1.33 ± 0.21 h | Cmax ([7]; po, 10 mg/kg): 39.3 ± 8.04 ng/mL | Tmax ([7]; po, 10 mg/kg): 0.83 ± 0.29 h | bioavailability ([7]; po, 10 mg/kg): 8.01 ± 0.02% | half-life ([7]; po, 10 mg/kg): 5.21 ± 3.02 h | AUC ([7]; po, 10 mg/kg, AUC0‒t, 10.0 mg/kg p.o.): 159 ± 48.7 ng·h/mL | AUC ([7]; po, 10 mg/kg, AUC0‒∞, 10.0 mg/kg p.o.): 198 ± 38.6 ng·h/mL | MRT ([7]; po, 10 mg/kg, MRT0‒t, 10.0 mg/kg p.o.): 3.91 ± 2.38 h | MRT ([7]; po, 10 mg/kg, MRT0‒∞, 10.0 mg/kg p.o.): 6.8 ± 2.79 h | body weight (mice; mice (male and female), 2 g/kg, within two weeks): increased gradually | behavioral abnormalities (mice; mice, 2 g/kg): No behavioral abnormalities | pathological injury (HE staining) (mice; mice, 2 g/kg, six organs): no obvious pathological injury | tolerability (mice; mice, single oral administration of 2 g/kg): well tolerated | SI (WT HIV-1 [1]): 256,438 | IC50 (WT HIV-1 RT): 21 ± 1 nM | EC50 (WT HIV-1 [2]): 0.9 ± 0.1 nM | EC50 (HIV-1 mutant L100I): 8.2 ± 1.4 nM | EC50 (HIV-1 mutant K103N): 1.9 ± 0.2 nM | EC50 (HIV-1 mutant Y188L): 161 ± 27.6 nM | EC50 (HIV-1 mutant E138K): 3.5 ± 0.8 nM | CC50 at 5 days [3]: 264000 nM | CC50 (MT-4 cells): 225000 ± 3900 nM

Cc1cc(-c2ccncc2)cc(C)c1Oc1nc(Nc2ccc(C#N)cc2)ncc1CO [9h, 4-((4-(2,6-Dimethyl-4-(pyridin-4-yl)phenoxy)-5-(hydroxymethyl)pyrimidin-2-yl)amino)benzonitrile]
SI (WT HIV-1 [1]): 30,868 | EC50 (WT HIV-1 [2]): 7.1 ± 3 nM | EC50 (HIV-1 mutant L100I): 323 ± 44.5 nM | EC50 (HIV-1 mutant K103N): 20.1 ± 3 nM | EC50 (HIV-1 mutant Y188L): 1580 ± 103 nM | EC50 (HIV-1 mutant E138K): 38.9 ± 4.1 nM | CC50 at 5 days [3]: 221000 ± 12500 nM
